From ChEMBL document CHEMBL1201862, “PubChem BioAssay data set” (2004)
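A five-concentration, 48-hour dose response in 96-well plates underlies each endpoint, interpolated linearly between surrounding concentrations. GI50: concentration for 50% inhibition of growth.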 Activity calls are given as the source filed them. Rule as the data show it: active = GI50 up to about 1.1 µM and inactive = higher.

Legend:
Experiment in all cases: growth of human tumour cells (NCI), 48 h
A498 = tested on: A498
UACC-62 = tested on: UACC-62
HL-60 = tested on: HL-60
T47D = tested on: T47D
Malme-3M = tested on: Malme-3M
RXF 393 = tested on: RXF 393
MDA-N = tested on: MDA-N
TK-10 = tested on: TK-10
IGROV-1 = tested on: IGROV-1
SK-MEL-5 = tested on: SK-MEL-5
OVCAR-5 = tested on: OVCAR-5
PC-3 = tested on: PC-3
SNB-75 = tested on: SNB-75
OVCAR-4 = tested on: OVCAR-4
M14 = tested on: M14
NCI-H23 = tested on: NCI-H23
SNB-19 = tested on: SNB-19
HT-29 = tested on: HT-29
K562 = tested on: K562
MCF7 = tested on: MCF7
SF-268 = tested on: SF-268
MOLT-4 = tested on: MOLT-4
DU-145 = tested on: DU-145
UO-31 = tested on: UO-31
MDA-MB-435 = tested on: MDA-MB-435
KM12 = tested on: KM12
SW-620 = tested on: SW-620
BT-549 = tested on: BT-549
CCRF-CEM = tested on: CCRF-CEM
UACC-257 = tested on: UACC-257
OVCAR-8 = tested on: OVCAR-8
SK-OV-3 = tested on: SK-OV-3
A549 = tested on: A549
Hs-578T = tested on: Hs-578T
EKVX = tested on: EKVX
COLO 205 = tested on: COLO 205
SF-295 = tested on: SF-295
HCT-15 = tested on: HCT-15
SK-MEL-2 = tested on: SK-MEL-2
LOX IMVI = tested on: LOX IMVI
U-251 = tested on: U-251
OVCAR-3 = tested on: OVCAR-3
NCI/ADR-RES = tested on: NCI/ADR-RES
NCI-H226 = tested on: NCI-H226
NCI-H460 = tested on: NCI-H460
786-0 = tested on: 786-0
HOP-62 = tested on: HOP-62
HCT-116 = tested on: HCT-116
NCI-H522 = tested on: NCI-H522
SN12C = tested on: SN12C
RPMI-8226 = tested on: RPMI-8226
SF-539 = tested on: SF-539
ACHN = tested on: ACHN
HOP-92 = tested on: HOP-92
CAKI-1 = tested on: CAKI-1
SK-MEL-28 = tested on: SK-MEL-28
SR = tested on: SR
MDA-MB-231 = tested on: MDA-MB-231
HCC 2998 = tested on: HCC 2998

SMILES: CCOC(=O)CCC(C(=O)OCC)n1nnc2cc(Nc3c(C)[n+]([O-])c4cc(Cl)ccc4[n+]3[O-])ccc21 (centres undefined)
- GI50 (A498): > 100 µM (inactive)
- GI50 (UACC-62): 55.7 µM (inactive)
- GI50 (HL-60): 41.3 µM (inactive)
- GI50 (T47D): 47.2 µM (inactive)
- GI50 (Malme-3M): > 100 µM (inactive)
- GI50 (RXF 393): 53.6 µM (inactive)
- GI50 (MDA-N): > 100 µM (inactive)
- GI50 (TK-10): > 100 µM (inactive)
- GI50 (IGROV-1): > 100 µM (inactive)
- GI50 (SK-MEL-5): 49.8 µM (inactive)
- GI50 (OVCAR-5): 62.8 µM (inactive)
- GI50 (PC-3): > 100 µM (inactive)
- GI50 (SNB-75): 89.3 µM (inactive)
- GI50 (OVCAR-4): 77.4 µM (inactive)
- GI50 (M14): 44.6 µM (inactive)
- GI50 (NCI-H23): 60.5 µM (inactive)
- GI50 (SNB-19): > 100 µM (inactive)
- GI50 (HT-29): 76 µM (inactive)
- GI50 (K562): 59.2 µM (inactive)
- GI50 (MCF7): 28.2 µM (inactive)
- GI50 (SF-268): 38.4 µM (inactive)
- GI50 (MOLT-4): 49.1 µM (inactive)
- GI50 (DU-145): > 100 µM (inactive)
- GI50 (UO-31): 72.6 µM (inactive)
- GI50 (MDA-MB-435): > 100 µM (inactive)
- GI50 (KM12): > 100 µM (inactive)
- GI50 (SW-620): 88.7 µM (inactive)
- GI50 (BT-549): > 100 µM (inactive)
- GI50 (CCRF-CEM): 35.6 µM (inactive)
- GI50 (UACC-257): 40.1 µM (inactive)
- GI50 (OVCAR-8): > 100 µM (inactive)
- GI50 (SK-OV-3): > 100 µM (inactive)
- GI50 (A549): > 100 µM (inactive)
- GI50 (Hs-578T): > 100 µM (inactive)
- GI50 (EKVX): 14.2 µM (inactive)
- GI50 (COLO 205): 41.7 µM (inactive)
- GI50 (SF-295): 68.5 µM (inactive)
- GI50 (HCT-15): 43.9 µM
- GI50 (SK-MEL-2): 77.8 µM (inactive)
- GI50 (LOX IMVI): 69.2 µM (inactive)
- GI50 (U-251): 80.4 µM (inactive)
- GI50 (OVCAR-3): 40.2 µM (inactive)
- GI50 (NCI/ADR-RES): 35.1 µM (inactive)
- GI50 (NCI-H226): 32.9 µM (inactive)
- GI50 (NCI-H460): 48.3 µM (inactive)
- GI50 (786-0): 59.2 µM (inactive)
- GI50 (HOP-62): 46.8 µM (inactive)
- GI50 (HCT-116): 47.9 µM (inactive)
- GI50 (NCI-H522): > 100 µM (inactive)
- GI50 (SN12C): 96.6 µM (inactive)
- GI50 (RPMI-8226): 37.2 µM (inactive)
- GI50 (SF-539): 95.5 µM (inactive)
- GI50 (ACHN): 46.2 µM (inactive)
- GI50 (HOP-92): 67.9 µM (inactive)
- GI50 (CAKI-1): 93.3 µM (inactive)

SMILES: CC(C)(C)[Si](C)(C)OCC#C[C@@]1(O)CCCCC1CC(Sc1ccccc1)Sc1ccccc1 (some centres undefined)
- GI50 (A498): 16.3 µM (inactive)
- GI50 (UACC-62): 12.9 µM (inactive)
- GI50 (HL-60): 18.8 µM (inactive)
- GI50 (T47D): 10.7 µM (inactive)
- GI50 (Malme-3M): 16.1 µM (inactive)
- GI50 (RXF 393): 12.5 µM (inactive)
- GI50 (MDA-N): 18.2 µM (inactive)
- GI50 (TK-10): 17.9 µM (inactive)
- GI50 (IGROV-1): 16.1 µM (inactive)
- GI50 (SK-MEL-28): 16.3 µM (inactive)
- GI50 (SK-MEL-5): 15.7 µM (inactive)
- GI50 (OVCAR-5): 14.2 µM (inactive)
- GI50 (PC-3): 13.5 µM (inactive)
- GI50 (SNB-75): 14.8 µM (inactive)
- GI50 (OVCAR-4): 13.9 µM (inactive)
- GI50 (M14): 18.2 µM (inactive)
- GI50 (NCI-H23): 14.9 µM (inactive)
- GI50 (SNB-19): 15.4 µM (inactive)
- GI50 (HT-29): 14 µM (inactive)
- GI50 (K562): 14.2 µM (inactive)
- GI50 (MCF7): 10.2 µM (inactive)
- GI50 (MOLT-4): 11.6 µM (inactive)
- GI50 (DU-145): 15.8 µM (inactive)
- GI50 (UO-31): 13.9 µM (inactive)
- GI50 (MDA-MB-435): 15.7 µM (inactive)
- GI50 (KM12): 21.9 µM (inactive)
- GI50 (SW-620): 15.1 µM (inactive)
- GI50 (BT-549): 19 µM (inactive)
- GI50 (CCRF-CEM): 11.8 µM (inactive)
- GI50 (UACC-257): 15.5 µM (inactive)
- GI50 (OVCAR-8): 16.5 µM (inactive)
- GI50 (SK-OV-3): 15.7 µM (inactive)
- GI50 (A549): 14.9 µM (inactive)
- GI50 (EKVX): 16.4 µM (inactive)
- GI50 (COLO 205): 16.3 µM (inactive)
- GI50 (SF-295): 14.7 µM (inactive)
- GI50 (HCT-15): 14.9 µM
- GI50 (SK-MEL-2): 15.8 µM (inactive)
- GI50 (LOX IMVI): 17.3 µM (inactive)
- GI50 (U-251): 13.3 µM (inactive)
- GI50 (OVCAR-3): 12.9 µM (inactive)
- GI50 (NCI/ADR-RES): 15 µM (inactive)
- GI50 (NCI-H226): 15.3 µM (inactive)
- GI50 (NCI-H460): 15.2 µM (inactive)
- GI50 (786-0): 13.5 µM (inactive)
- GI50 (SR): 14.8 µM (inactive)
- GI50 (HOP-62): 16.9 µM (inactive)
- GI50 (HCT-116): 11.8 µM (inactive)
- GI50 (NCI-H522): 11.4 µM (inactive)
- GI50 (SN12C): 11.6 µM (inactive)
- GI50 (RPMI-8226): 15.3 µM (inactive)
- GI50 (MDA-MB-231): 16.9 µM (inactive)
- GI50 (HCC 2998): 15.6 µM (inactive)
- GI50 (ACHN): 14.4 µM (inactive)
- GI50 (HOP-92): 15.6 µM (inactive)
- GI50 (CAKI-1): 10.7 µM (inactive)

SMILES: COc1cc(/C=N/Nc2nnc3c4ccccc4c4ncccc4c3n2)cc(OC)c1OC
- GI50 (HL-60): 3.62 µM (inactive)
- GI50 (T47D): 1.21 µM (inactive)
- GI50 (RXF 393): 4.72 µM (inactive)
- GI50 (MDA-N): 1.61 µM (inactive)
- GI50 (TK-10): 4.28 µM (inactive)
- GI50 (IGROV-1): 1.04 µM (active)
- GI50 (SK-MEL-5): 4.31 µM (inactive)
- GI50 (OVCAR-5): 5.13 µM (inactive)
- GI50 (SNB-75): 3.82 µM (inactive)
- GI50 (OVCAR-4): 6.46 µM (inactive)
- GI50 (M14): 8.51 µM (inactive)
- GI50 (NCI-H23): 2.57 µM (inactive)
- GI50 (SNB-19): 6.71 µM (inactive)
- GI50 (HT-29): 2.02 µM (inactive)
- GI50 (K562): 3.17 µM (inactive)
- GI50 (SF-268): 6.58 µM (inactive)
- GI50 (MOLT-4): 2.9 µM (inactive)
- GI50 (DU-145): 3.31 µM (inactive)
- GI50 (UO-31): 3.39 µM (inactive)
- GI50 (MDA-MB-435): 5.12 µM (inactive)
- GI50 (KM12): 9.29 µM (inactive)
- GI50 (BT-549): 6.22 µM (inactive)
- GI50 (CCRF-CEM): 2.63 µM (inactive)
- GI50 (UACC-257): 1.97 µM (inactive)
- GI50 (OVCAR-8): 2.23 µM (inactive)
- GI50 (A549): 2.79 µM (inactive)
- GI50 (Hs-578T): 4.74 µM (inactive)
- GI50 (EKVX): 9.82 µM (inactive)
- GI50 (SF-295): 3.49 µM (inactive)
- GI50 (U-251): 4.21 µM (inactive)
- GI50 (OVCAR-3): 3.53 µM (inactive)
- GI50 (NCI-H226): 3.01 µM (inactive)
- GI50 (NCI-H460): 0.728 µM (active)
- GI50 (786-0): 5.83 µM (inactive)
- GI50 (SR): 3.37 µM (inactive)
- GI50 (NCI-H522): 2.47 µM (inactive)
- GI50 (SF-539): 3.71 µM (inactive)
- GI50 (ACHN): 5.85 µM (inactive)
